Data as given in patent US20240130944A1, “LRAT INHIBITORS FOR TREATING SKIN AGEING” (DSM IP Assets B.V., priority 2021, published 2024).

Legend:
recombinant LRAT enzyme = target: T1, recombinant LRAT enzyme (Homo sapiens, UniProt O95237); test: LRAT inhibition assay; assay type: biochemical; settings: inhibitor concentration 100 [μm]; relative to non-inhibited control reaction
T1 construct: purchased Abnova H00009227-PO1
T1 sequence (O95237 1-230): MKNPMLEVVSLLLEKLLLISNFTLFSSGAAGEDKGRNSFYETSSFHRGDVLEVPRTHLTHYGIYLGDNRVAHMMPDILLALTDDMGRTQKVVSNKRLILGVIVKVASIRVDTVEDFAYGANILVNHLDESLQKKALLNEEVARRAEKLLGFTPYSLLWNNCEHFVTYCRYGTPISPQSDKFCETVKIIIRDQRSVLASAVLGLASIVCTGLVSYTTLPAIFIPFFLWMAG
Procedure: The following buffer was prepared and stored at 4° C.: 0.05 M potassium phosphate, 2.5 mM dithioerythritol, pH 7.0(PO4/DTE). On the day of the assay, 1 mg BSA per mL of buffer was added to give a P04/DTE/BSA working buffer. Retinol substrate (Fluke, 1 mM) was prepared in acetonitrile (Riedel-de-Haen, Chromasolv) and stored in amber bottles under nitrogen gas at −20° C. Solutions of 4 mM dilauroyl phosphatidyl choline in ethanol were prepared and stored at −20° C. Inhibitors were prepared as 10 mM stock solutions according their solubilities in H2O, ethanol, acetonitrile, DMSO or acetic acid. The quenching solution was prepared using pure ethanol containing 50 μg/mL butylhydroxytoluene (Aldrich, BHT) A pentane solution containing 50 μg/mL BHT was used for the extractions.
To a 2 dram glass vial, the following were added in order: […] buffer to give a total volume of 500 μL, 5 μL acyl donor (dilauroyl phosphatidyl choline), 5 μL inhibitor or solvent blank (10 mM stock or further dilutions) followed by 2 μg recombinant LRAT enzyme (Abnova, H00009227-PO1). The mixture was incubated for 5 min. at 37° C. to equilibrate the reaction temperature and then 5 μL of a 1 mM retinol solution was added. The vials were capped, vortexed for 5 seconds and incubated for 60 minutes at 37° C. The reaction was quenched by adding 0.5 mL of a ethanol/BHT quenching solution. The retinoids were extracted by adding 1 mL pentane/BHT, vortexing the tubes for several seconds and centrifuging the tubes at 4000 rpm in a bench-top centrifuge for 5 min. to quickly separate the layers. The upper pentane layer was removed into a clean vial, and the aqueous layer re-extracted twice with another 1 mL pentane/BHT, as described above. […] The dried residue was stored at −20° C. and directly analyzed by HPLC. The amount of retinyl laurate was quantified for LRAT activity by integration of the HPLC or UPLC signal as described below. […]
Two HPLC protocols were used for retinoid analysis. The separation of retinol and retinol esters was performed with a reverse-phase analytical column (Waters Symmetry (R), 75×4.6 mm, 3.5 μm; Eluent A: 0.07% trifluoroacetic acid TFA in water, B: 0.07% TFA in acetonitrile (AcN), linear gradient from 1% B to 99% B in 6 min, 24 min on 99% B) or ACQUITY UPLC BEH Phenyl 1.7 μm 2.1×50 mm (0.02% TFA in water and eluent B, 0.02% TFA in AcN with a gradient of 2% to 99% B in 0.9 min, 99% B for 1 min, from 99% to 2% B in 0.1 min and flow rate 0.5 ml/min at 40° C. The eluate was monitored with a PDA detector for absorbance at 325 nm. Quantification of the retinol and retinylester peak was based on references retinoic acid and retinyl acetate (Fluke). The inhibition [%] was calculated relative to the product yield from the non-inhibited control reaction.

[1] = system: living human skin explants; test: Epidermal thickness on living human skin explants; assay type: cell-based; set-up: key: 0 = unchanged; (+) = very slight increased; + = slight increased; ++ = moderate increased; +++ = fairly clear increased; ++++ = clear increased; settings: topical
Procedure: (§1) On an abdoplasty coming from a person with a type II phototype, 51 circular skin explants of 11±1 mm in diameter were prepared. The explants were kept for survival in BEM culture medium (BIO-EC's Explants Medium, Longjumeau, France) at 37° C. in a humid, 5% CO2 atmosphere
(§2) Each morning on day 0, 1, 4 and 6 the test products (except retinol) were applied topically on the basis of […] (2 mg/cm2) of the concerned skin explants and spread using a small spatula. Each evening on day 0, 1, 4, 6 the retinol was applied topically on the basis of 2 μl/ explants (2 mg/cm2) of the concerned skin explants and spread using a small spatula. The vehicle V (DMSO 100%) was applied topically (same protocol as for products) in the morning and in the evening on day0, 1, 4, 6. The culture medium was refreshed on dayl, 4 and 6.
(§3) On day 0, 3 explants from the batch at day 0 were collected and cut in two parts. Half was fixed in buffered formalin solution and half was frozen at −80° C. On day 8, 3 explants from each experimental condition were collected and processed in the same way as on day 0.
(§4) After fixation for 24 hours in buffered formalin, the samples were dehydrated and impregnated in paraffin using a Leica PEARL dehydration automat. The samples were embedded using a Leica EG 1160 embedding station. 5-μm-thick sections were made using a Leica RM 2125 Minot-type microtome, and the sections were mounted on Superfrost® histological glass slides. The frozen samples were cut at 7-μm thickness with a Leica CM 3050 cryostat. The sections were then mounted on silanized glass slides Superfrost® Plus. The microscopical observations were realized using a Leica DMLB or Olympus BX43 microscope. Pictures were digitized with a numeric DP72 Olympus camera with cellSens storing software.
The cell viability of the epidermal and dermal structures was controlled on formalin-fixed paraffin-embedded (FFPE) skin sections after to Masson's trichrome staining, Goldner variant. The cell viability was assessed by microscopical observation.

Collagen III = Collagen III immunostaining on living human skin explants; assay type: cell-based; set-up: key: 0 = unchanged; (+) = very slight increased; + = slight increased; ++ = moderate increased; +++ = fairly clear increased; ++++ = clear increased; settings: topical
Procedure: as §1, §2, §3, §4
The staining was assessed by microscopical observation

[2] = LRAT inhibitor 0.005% with Retinol 0.05%
[3] = LRAT inhibitor 0.005%, no retinol
[4] = LRAT inhibitor 0.01% with Retinol 0.05%
[5] = LRAT inhibitor 0.01%, no retinol
[6] = LRAT inhibitor 0.1% with Retinol 0.05%

Compound: CC(=O)N1CCN(C(=O)[C@H](Cc2cccc(C(=N)N)c2)NS(=O)(=O)c2ccc3ccccc3c2)CC1 [2NAPS-(L)-F(3AMD)-Pzd(N—Ac)]
- LRAT inhibition, Inhibition [%] (recombinant LRAT enzyme): 38.7%

Compound: CS(=O)(=O)N1CCN(C(=O)C(N)Cc2cccc(C(=N)N)c2)CC1.Cl.Cl (centres unmarked) [H-(D,L)-F(3AMD)-Pzd(N—SO2Me) × 2 HCl, H-(D,L)-F(3AMD)-Pzd(N—SO2Me), reference compound]
- LRAT inhibition, Inhibition [%] (recombinant LRAT enzyme): 6.8%

Compound: CCCCCCCCCCS(=O)(=O)NC(Cc1cccc(C(=N)N)c1)C(=O)N1CCN(S(C)(=O)=O)CC1 (centres unmarked) [LRAT-IA, DECS-(L)-F(3AMD)-Pzd(N-SO2Me)]
- change of Epidermis thickness compared to control (vehicle only) on day 8 [1, 2]: +
- change of Epidermis thickness compared to control (vehicle only) on day 8 [1, 3]: (+)
- change of Epidermis thickness compared to control (vehicle only) on day 8 [1, 4]: +
- change of Epidermis thickness compared to control (vehicle only) on day 8 [1, 5]: +
- change of Epidermis thickness compared to control (vehicle only) on day 8 [1, 6]: +
- change of Collagen III level (staining) compared to control (vehicle only) on day 8 (Collagen III; [2]): +
- change of Collagen III level (staining) compared to control (vehicle only) on day 8 (Collagen III; [3]): 0
- change of Collagen III level (staining) compared to control (vehicle only) on day 8 (Collagen III; [4]): ++
- change of Collagen III level (staining) compared to control (vehicle only) on day 8 (Collagen III; [5]): 0
- change of Collagen III level (staining) compared to control (vehicle only) on day 8 (Collagen III; [6]): +++
- change of Collagen III level (staining) compared to control (vehicle only) on day 8 (Collagen III; LRAT inhibitor 0.1%, no retinol): ++

Compound: CCCCCCCCS(=O)(=O)NC(Cc1cccc(C(=N)N)c1)C(=O)N1CCN(S(=O)(=O)CCCCCCCC)CC1 (centres unmarked) [OCTS-(D,L)-F(3AMD)-Pzd(N—SO2Oct)]
- LRAT inhibition, Inhibition [%] (recombinant LRAT enzyme): 89.9%

Compound: CC1=C(/C=C/C(C)=C/C=C/C(C)=C/CO)C(C)(C)CCC1 [Retinol, reference compound]
- change of Epidermis thickness compared to control (vehicle only) on day 8 ([1]; Retinol 0.05% alone): +
- change of Collagen III level (staining) compared to control (vehicle only) on day 8 (Collagen III; Retinol 0.05% alone): +

Compound: DODS-(L)-F(4NH2)-Pzd(N—SO2Me) [reference compound]
- LRAT inhibition, Inhibition [%] (recombinant LRAT enzyme): 0%
